Source: patent US9757472B2, “Proteas stabilized antibacterial peptides for S. aureus” (Arizona Board of Regents on Behalf of Arizona State …, priority 2014, dated 2017)
Where two headings read alike, the source gives them in different places. Starred links: 1 amine or outer side, 2 acyl side, 3 side chain; linkers in the order of their positions; H or OH if unused. Positions of bridges follow the written chain, without caps; N, C: chain ends. Non-standard residues stand in square brackets, D forms with d. Residues, ends and D or L forms follow the SMILES beside them. Chains are numbered I, II in the order given. No end group written: not given here. ξ: configuration not given here. *: point of attachment. Succinimide(1-C2H4CO,3-yl) = O=C1CC([*:1])C(=O)N1CCC(=O)[*:2]; Biotin = O=C1N[C@H]2[C@H](CS[C@H]2CCCCC(=O)*)N1; X2 = O=C1NC2CS[C@@H](CCCCC(=O)*)C2N1; X1 = O=C1NC2CSC(CCCCC(=O)*)C2N1; ξK = NCCCCC(N)C(=O)O; ξC = NC(CS)C(=O)O; ξS = NC(CO)C(=O)O; tBu = CC(C)(C)*

How the values were obtained:
[1] = tested on: MSSA
[2] = tested on: MRSA
[3] = tested on: MSSA; test: Minimum bactericidal concentration (MBC) / bactericidal activity against MSSA; assay type: cell-based, S. aureus; conditions: for MBC (μM) (MSSA): 14 h
[4] = tested on: red blood cell
[5] = tested on: red blood cell; test: Hemolysis (H50); conditions: Table 3
[6] = in vitro; conditions: mouse, serum

Molecule	MIC (μM) (MSSA) [1] [µM]	MBC (μM) (MSSA) [3] [µM]	H50 [4] [µM]	other results
N=C(N)NCCC[C@H](NC(=O)[C@H](CCCNC(=N)N)NC(=O)[C@@H](CCCCN)NC(=O)[C@@H](CCCCN)NC(=O)CNC(=O)[C@H](CO)NC(=O)[C@@H](N)CS)C(=O)N[C@@H](Cc1c[nH]cn1)C(=O)N[C@@H](Cc1c[nH]cn1)C(=O)N[C@H](CCCNC(=N)N)C(=O)N[C@H](CCCNC(=N)N)C(=O)N[C@H](CCCCN)C(=O)N[C@H](CCCCN)C(=O)N[C@@H](CCCNC(=N)N)C(=O)N[C@H](CCCNC(=N)N)C(=O)N[C@@H](Cc1c[nH]cn1)C(=O)N[C@@H](Cc1c[nH]cn1)C(=O)N[C@H](CCCNC(=N)N)C(=O)N[C@H](CCCNC(=N)N)C(=O)N[C@@H](CCCCN)C(=O)O [D1, CSGkkRRHHrrkkRrHHrrK] (H-CSG[dK][dK]RRHH[dR][dR][dK][dK]R[dR]HH[dR][dR]K-OH; N-terminus and C-terminus assumed)	<50			
N=C(N)NCCC[C@H](NC(=O)CNC(=O)[C@H](CO)NC(=O)[C@@H](N)CS)C(=O)N[C@H](CCCNC(=N)N)C(=O)N[C@H](CCCCN)C(=O)N[C@H](CCCNC(=N)N)C(=O)N1CCC[C@H]1C(=O)N[C@H](CCCNC(=N)N)C(=O)N[C@H](CCCNC(=N)N)C(=O)N[C@H](CCCCN)C(=O)N[C@H](CCCNC(=N)N)C(=O)N1CCC[C@H]1C(=O)N[C@@H](CCCNC(=N)N)C(=O)N[C@H](CCCNC(=N)N)C(=O)N[C@H](CCCCN)C(=O)N[C@@H](CCCNC(=N)N)C(=O)N1CCC[C@H]1C(=O)N[C@@H](CCCNC(=N)N)C(=O)N[C@H](CCCNC(=N)N)C(=O)O [D2, CSGRrkrPrrkrPRrkRPRr] (H-CSGR[dR][dK][dR]P[dR][dR][dK][dR]PR[dR][dK]RPR[dR]-OH; N-terminus and C-terminus assumed)	<50			
I: Ac-[dR]W[dR][dR]H[dK]H[dF][dK][dR]PH[dR][dK]H[dK][dR]GSC-NH2 / II: Ac-[dR]W[dR][dR]H[dK]H[dF][dK][dR]PH[dR][dK]H[dK][dR]GSC-NH2 / III: [ξK]G[ξS][ξK][ξS]G[ξK](X2)G[ξC](tBu)-NH2 (linker I:20-III:1, II:20-III:N via Succinimide(1-C2H4CO,3-yl)) [Ly-Ly-Sc0]	12.5	12.5	>500	MIC (μM) MRSA (USA300) [2]: 6.25 µM
I: CSGEMWAIMPPIIKPDNKGH-NH2 / II: CSGR[dR][dK][dR]P[dR][dR][dK][dR]PR[dR][dK]RPR[dR]-NH2 / III: KGSKSGK(Biotin)GC(tBu)-NH2 (linker I:1-III:1, II:1-III:N via Succinimide(1-C2H4CO,3-yl)) [D2-88-SC0]				H50 [5]: >500 µM
I: CSGR[dR][dK][dR]P[dR][dR][dK][dR]PR[dR][dK]RPR[dR] / II: CSGR[dR][dK][dR]P[dR][dR][dK][dR]PR[dR][dK]RPR[dR] / III: [ξK]G[ξS][ξK][ξS]G[ξK](X2)G[ξC](tBu)-NH2 (linker I:1-III:1, II:1-III:N via Succinimide(1-C2H4CO,3-yl)) [D2-D2-Sc0, CSGRrkrPrrkrPRrkRPRr-Sc0-CSGRrkrPrrkrPRrkRPRr]	5	5	>500	
I: CSG[dK][dK]RRHH[dR][dR][dK][dK]R[dR]HH[dR][dR]K / II: CSG[dK][dK]RRHH[dR][dR][dK][dK]R[dR]HH[dR][dR]K / III: [ξK]G[ξS][ξK][ξS]G[ξK](X2)G[ξC](tBu)-NH2 (linker I:1-III:1, II:1-III:N via Succinimide(1-C2H4CO,3-yl)) [D1-D1-Sc0, CSGkkRRHHrrkkRrHHrrK-Sc0-CSGkkRRHHrrkkRrHHrrK]	10	5	>500	
I: D[dR]IFH[dK]MQH[dK]PY[dK]I[dK][dK][dR]GSGGGK[ξK](X1)-NH2 / II: [dR]W[dR][dR]H[dK]HF[dK][dR]PH[dR][dK]H[dK][dR]GSG (amide I:23-II:C) [Synbody (4)]				half-life [6]: ~2.17 h; MIC, MRSA (n = 2) [2]: 3.3 µM; bactericidal activity against MSSA (in words) [3]: some bactericidal activity against MSSA; H50 = concentration that causes 50% hemolysis [4]: >200 µM; MIC, MSSA (n = 3) [1]: 2.2 µM
